Where “and” joins values, the source holds several entries; their conditions need not be identical. Equal entries are not always repeated.
How the values were obtained:
Assay type in all cases: cell-based
E. coli = assay: EDTA salt dilution test, MIC/MBC; details: three entries
Protocol: (§1) Protocol one: Broth dilutions:
(§2) Inoculate a 25 ml nutrient broth (Oxoid No2) in a sterile universal container with one of the following organisms; Pseudomonas aeruginosa, Proteus Mirabilis, E. coli, Klebsiella pneumoniae, Staph aureus, Coagulase negative staphylococci, Enterococcus faecalis or MRSA.
(§3) Incubate the broth at 37° C. overnight.
(§4) To make these concentrations put the EDTA needed for 10 mLs in only 9 mLs of broth in sterile universal containers, as this will be diluted further when the organisms are added.
(§5) Dilute the overnight broth cultures to 10^7 organisms/mL using more sterile nutrient broth.
(§6) Add 1 mL of this diluent to each of the EDTA series broths. This gives a final concentration of 10^6 organism/mL in the EDTA broths.
(§7) Incubate for 18 hours at 37° C.
(§8) Next day visually read the MIC's by observing the turbidity of the broths.
(§9) Plate out 1 uL of each dilution onto fresh blood agar plate and spread using a sterile plastic spreader.
(§10) Incubate overnight at 37° C.
(§11) Next day read the MBC's by performing colony counts.

Ent. faecalis = assay: EDTA salt dilution test, MIC/MBC
Protocol: as §1, §2, §3, §4, §5, §6, §7, §8, §9, §10, §11

Kleb. pnemoniae = assay: EDTA salt dilution test, MIC/MBC; details: two entries
Protocol: as §1, §2, §3, §4, §5, §6, §7, §8, §9, §10, §11

MRSA = assay: EDTA salt dilution test, MIC/MBC; details: five entries
Protocol: as §1, §2, §3, §4, §5, §6, §7, §8, §9, §10, §11

Proteus mirabilis = assay: EDTA salt dilution test, MIC/MBC; details: two entries
Protocol: as §1, §2, §3, §4, §5, §6, §7, §8, §9, §10, §11

Pseudomonas aeruginosa = assay: EDTA salt dilution test, MIC/MBC; details: two entries
Protocol: as §1, §2, §3, §4, §5, §6, §7, §8, §9, §10, §11

Pseudomonas sp. = assay: EDTA salt dilution test, MIC/MBC
Protocol: as §1, §2, §3, §4, §5, §6, §7, §8, §9, §10, §11

S. aureus = assay: EDTA salt dilution test, MIC/MBC; details: five entries
Protocol: as §1, §2, §3, §4, §5, §6, §7, §8, §9, §10, §11

S. capitis = assay: EDTA salt dilution test, MIC/MBC; details: two entries
Protocol: as §1, §2, §3, §4, §5, §6, §7, §8, §9, §10, §11

S. epidermidis = assay: EDTA salt dilution test, MIC/MBC; details: two entries
Protocol: as §1, §2, §3, §4, §5, §6, §7, §8, §9, §10, §11

S. lentus = assay: EDTA salt dilution test, MIC/MBC
Protocol: as §1, §2, §3, §4, §5, §6, §7, §8, §9, §10, §11

S. simulans = assay: EDTA salt dilution test, MIC/MBC
Protocol: as §1, §2, §3, §4, §5, §6, §7, §8, §9, §10, §11

S. xylosus = assay: EDTA salt dilution test, MIC/MBC
Protocol: as §1, §2, §3, §4, §5, §6, §7, §8, §9, §10, §11

VRE = assay: EDTA salt dilution test, MIC/MBC; details: two entries
Protocol: as §1, §2, §3, §4, §5, §6, §7, §8, §9, §10, §11

Ent. faeculm = assay: EDTA salt dilution test, MIC/MBC
Kleb. oxytoca = assay: EDTA salt dilution test, MIC/MBC
Kleb. ornitholytica = assay: EDTA salt dilution test, MIC/MBC
Ent. cloacae = assay: EDTA salt dilution test, MIC/MBC; details: three entries
Steno. maltophilia = assay: EDTA salt dilution test, MIC/MBC
Cornyeform amycolatum = assay: EDTA salt dilution test, MIC/MBC
Coryneform strait/amy = assay: EDTA salt dilution test, MIC/MBC
Acinetobacter baumanii = assay: EDTA salt dilution test, MIC/MBC; details: two entries, Exhibit A2
Proteus vulgaris = assay: EDTA salt dilution test, MIC/MBC
C. lucitaniae = assay: EDTA agar dilution method, yeasts, MIC/MBC; details: Exhibit C
From the text: (§12) Protocol 3: Agar dilutions.
Do this until all the media is used up.

C. albicans = assay: EDTA agar dilution method, yeasts, MIC/MBC; details: three entries, Exhibit C
Protocol: (§13) The bactericidal effects were measured as the Minimum Bactericidal Concentration (MBC), while the inhibitory effects were measured as the Minimum Inhibitory Concentration (MIC). In each case, the concentration was measured as milligrams of the disinfectant salt per milliliter of water (mg/ml).
as §12
(§14) Prepare nutrient agar plates with increasing concentrations of EDTA, 0, 0.5, 1, 1.5, 2, 4, 6, 8, 10, 15, 20, 25, 30 mg/mL, using the following method. • Pour 300 mL distilled water into a sterile glass bottle. • Add the appropriate amount of EDTA. This is the concentration desired ×300, in grams. • Once the EDTA has fully dissolved, add 8.4 g of Nutrient agar powder (Oxoid). Mix thoroughly. • Do this for each concentration of EDTA required. […] Do this until all the media is used up. Label the plates with the concentration of EDTA they contain. • These plates can then be stored, until they are needed, in a 4° C. fridge. • Use an automatic plate inoculator to inoculate each plate with 21 organisms.

C. glabrata = assay: EDTA agar dilution method, yeasts, MIC/MBC; details: two entries, Exhibit C
Protocol: as §13, §12, §14

C. guilliermondii = assay: EDTA agar dilution method, yeasts, MIC/MBC; details: Exhibit C
Protocol: as §13, §12, §14

C. parapsilosis = assay: EDTA agar dilution method, yeasts, MIC/MBC; details: Exhibit C
Protocol: as §13, §12, §14

C. tropicalis = assay: EDTA agar dilution method, yeasts, MIC/MBC; details: Exhibit C
Protocol: as §13, §12, §14

variety of microbes = assay: Efficacy of disinfectant salts of EDTA against a number of microbes; details: general statement
Protocol: The Applicant has tested the efficacy of a number of disinfectant salts of EDTA against a number of microbes.
as §1, §2, §3
Next day make up a series of nutrient broths containing a dilution of the appropriate EDTA as in the following list; 0 mg/mL, 0.25 mg/mL, 0.5 mg/mL, 1.0 mg/mL, 1.5 mg/mL, 2.0 mg/mL, 4.0 mg/mL, 6.0 mg/mL, 8.0 mg/mL, 10 mg/mL, 15 mg/mL, 20 mg/mL, 25 mg/mL, 30 mg/ml, 40 mg/mL, 50 mg/mL, 60 mg/mL, 70 mg/mL, 80 mg/mL, 90 mg/mL, 100 mg/mL.
as §4, §5, §6, §7
Next day visually read the MIC's by observing the turbidity of the broths. […]
as §11

With `O=C([O-])CN(CCN(CC(=O)O)CC(=O)O)CC(=O)[O-].[K+].[K+]` [Dipotassium EDTA] the “MBC, minimum concentration required to kill an entire population” value (“MBC, minimum concentration required” below) (E. coli; Exhibit A1) was >15000 µg/mL and 15000 µg/mL, the “MIC, minimum concentration required to inhibit growth” value (shortened to “MIC … to inhibit growth”) (E. coli; Exhibit A2) was 1000 µg/mL and the “MBC, minimum concentration required” value (Ent. faecalis; Exhibit A1) was 15000 µg/mL. The “MIC … to inhibit growth” value (Ent. faecalis; Exhibit A2) was 1000 µg/mL, the “MBC, minimum concentration required” value (Kleb. pnemoniae; Exhibit A1) was 15000 µg/mL and the “MIC … to inhibit growth” value (Kleb. pnemoniae; Exhibit A2) was 1500 µg/mL and 1000 µg/mL. For the same molecule, the “MBC, minimum concentration required” value (MRSA; Exhibit A1) was 6000 µg/mL and 10000 µg/mL and 8000 µg/mL, the “MIC … to inhibit growth” value (MRSA; Exhibit A2) was 1000 µg/mL and the “MBC, minimum concentration required” value (Proteus mirabilis; Exhibit A1) was >15000 µg/mL and 15000 µg/mL. For the same molecule, the “MIC … to inhibit growth” value (Proteus mirabilis; Exhibit A2) was <500 µg/mL, the “MBC, minimum concentration required” value (Pseudomonas aeruginosa; Exhibit A1) was >15000 µg/mL and the “MIC … to inhibit growth” value (Pseudomonas aeruginosa; Exhibit A2) was 1000 µg/mL. For the same molecule, the “MBC, minimum concentration required” value (Pseudomonas sp.; Exhibit A1) was 15000 µg/mL, the “MIC … to inhibit growth” value (Pseudomonas sp.; Exhibit A2) was 1000 µg/mL and the “MBC, minimum concentration required” value (S. aureus; Exhibit A1) was 6000 µg/mL and 8000 µg/mL. The “MIC … to inhibit growth” value (S. aureus; Exhibit A2) was 1000 µg/mL, the “MBC, minimum concentration required” value (S. capitis; Exhibit A1) was 8000 µg/mL and 10000 µg/mL and the “MIC … to inhibit growth” value (S. capitis; Exhibit A2) was <500 µg/mL. For the same molecule, the “MBC, minimum concentration required” value (S. epidermidis; Exhibit A1) was 8000 µg/mL, the “MIC … to inhibit growth” value (S. epidermidis; Exhibit A2) was <500 µg/mL and the “MBC, minimum concentration required” value (S. lentus; Exhibit A1) was 10000 µg/mL. The “MIC … to inhibit growth” value (S. lentus; Exhibit A2) was <500 µg/mL, the “MBC, minimum concentration required” value (S. simulans; Exhibit A1) was 8000 µg/mL and the “MIC … to inhibit growth” value (S. simulans; Exhibit A2) was <500 µg/mL. For the same molecule, the “MBC, minimum concentration required” value (S. xylosus; Exhibit A1) was 6000 µg/mL, the “MIC … to inhibit growth” value (S. xylosus; Exhibit A2) was <500 µg/mL and the “MBC, minimum concentration required” value (VRE; Exhibit A1) was 8000 µg/mL. For the same molecule, the “MIC … to inhibit growth” value (VRE; Exhibit A2) was <500 µg/mL and 1000 µg/mL, the “MIC … to inhibit growth” value (Ent. faeculm; Ent. faecuim, Exhibit A2) was <500 µg/mL and the “MBC, minimum concentration required” value (Ent. faeculm; Ent. faeculm, Exhibit A1) was 8000 µg/mL. The “MBC, minimum concentration required” value (Kleb. oxytoca; Exhibit A1) was 15000 µg/mL, the “MIC … to inhibit growth” value (Kleb. oxytoca; Exhibit A2) was 1000 µg/mL and the “MBC, minimum concentration required” value (Kleb. ornitholytica; Exhibit A1) was >15000 µg/mL. For the same molecule, the “MIC … to inhibit growth” value (Kleb. ornitholytica; Exhibit A2) was 1000 µg/mL, the “MBC, minimum concentration required” value (Ent. cloacae; Exhibit A1) was 15000 µg/mL and >15000 µg/mL and the “MIC … to inhibit growth” value (Ent. cloacae; Exhibit A2) was 4000 µg/mL and 6000 µg/mL. The “MBC, minimum concentration required” value (Steno. maltophilia; Exhibit A1) was 10000 µg/mL, the “MIC … to inhibit growth” value (Steno. maltophilia; Exhibit A2) was <500 µg/mL and the “MBC, minimum concentration required” value (Cornyeform amycolatum; Exhibit A1) was <500 µg/mL. For the same molecule, the “MIC … to inhibit growth” value (Cornyeform amycolatum; Exhibit A2) was <500 µg/mL, the “MBC, minimum concentration required” value (Coryneform strait/amy; Exhibit A1) was <500 µg/mL and the “MIC … to inhibit growth” value (Coryneform strait/amy; Exhibit A2) was <500 µg/mL. For the same molecule, the “MIC … to inhibit growth” value (Acinetobacter baumanii) was <500 µg/mL, the “MBC, minimum concentration required” value (Proteus vulgaris; Exhibit A1) was >15000 µg/mL and the “MIC … to inhibit growth” value (Proteus vulgaris; Exhibit A2) was 1000 µg/mL. For the same molecule, the “MIC's, Minimum Inhibitory Concentration” value (C. lucitaniae) was 500 µg/mL, the “MIC's, Minimum Inhibitory Concentration” value (C. albicans) was 500 µg/mL and the “MIC's, Minimum Inhibitory Concentration” value (C. glabrata) was 500 µg/mL. The “MIC's, Minimum Inhibitory Concentration” value (C. guilliermondii) was 500 µg/mL, the “MIC's, Minimum Inhibitory Concentration” value (C. parapsilosis) was 500 µg/mL and the “MIC's, Minimum Inhibitory Concentration” value (C. tropicalis) was 1000 µg/mL. For the same molecule, the “anti-microbial (antifungal and antibacterial) properties compared with the disodium salt” value (variety of microbes) was “superior to disodium EDTA”.

Reference: patent publication US20100316529A1, “Anti-Microbial Systems and Methods” (priority 2001, published 2010)
